5 compounds from EPA's ToxRefDB 2 can be followed below.

Usually NOAEL stands for the highest tested level that showed no adverse finding. As usually defined, the LOAEL is the lowest dose or exposure tested at which an adverse effect was seen.

Data set [1] deals with rat. The note with it: Subchronic oral toxicity in rodents, sprague dawley, Gavage/Intubation, dose end: 13 week, group: systemic.
The test system of data set [2] is rat. As to conditions: Subchronic dermal toxicity, sprague dawley, Topical, dose end: 13 week, group: systemic.
For data set [3], the system named is mouse. As to conditions: Combined chronic toxicity/carcinogenicity; Oral; Feed; dose end: 104 week; group: systemic; systemic / in life observation / water consumption / water consumption + systemic / pathology gross / full gross necropsy / abdominal cavity….
Data set [4] deals with dog. The note with it: Subchronic oral toxicity in nonrodent, beagle, Feed, dose end: 90 day, group: systemic.
The subject of data set [5] is mouse. As to conditions: Subchronic oral toxicity in rodents, other, Feed, dose end: 90 day, group: systemic.
The test system of data set [6] is dog. As to conditions: Chronic toxicity, beagle, Oral, Feed, dose end: 52 week, group: systemic.
The test system of data set [7] is rat. As to conditions: Subchronic oral toxicity in rodents, sprague dawley, Feed, dose end: 90 day, group: systemic.
Data set [8] deals with rat. The note with it: Multigenerational reproductive toxicity study, sprague dawley, Inhalation, Whole-Body, dose end: 2 generation.
Data set [9] concerns rat. As to conditions: Chronic toxicity, sprague dawley, Oral, Feed, dose end: 4 week, group: systemic.
Data set [10] relates to rat. As to conditions: Prenatal developmental toxicity study; wistar; Inhalation; Whole-Body; dose end: 19 GD; group: maternal; systemic / pathology gross / kidney / [other].
In data set [11] the test system is rat. The note with it: Combined chronic toxicity/carcinogenicity; sprague dawley; Oral; Feed; dose end: 104 week; group: systemic; systemic / in life observation / body weight / body weight + systemic / in life observation / body weight / body weight gain + systemic / in….
For data set [12], the system named is rat. As to conditions: Subchronic oral toxicity in rodents, other, Gavage/Intubation, dose end: 90 day, group: systemic, systemic / hematology / erythrocyte (rbc) count differential / erythrocyte (rbc) + systemic / hematology / hematocrit (hct) / hematocrit (….
Data set [13] has as its system rat. As to conditions: Prenatal developmental toxicity study, wistar, Oral, Gavage/Intubation, dose end: 15 GD.
Data set [14] concerns rat. The note with it: Multigenerational reproductive toxicity study, wistar, Oral, Feed, dose end: 2 generation.
Data set [15] concerns dog. The note with it: Subchronic oral toxicity in nonrodent, beagle, Feed, dose end: 100 day, group: systemic.
The test system of data set [16] is mouse. As to conditions: Subchronic oral toxicity in rodents, b6c3f1, Feed, dose end: 90 day, group: systemic.
Data set [17] concerns rat. The note with it: Subchronic oral toxicity in rodents, wistar, Feed, dose end: 3 month, group: systemic.
In data set [18] the test system is mouse. The note with it: Carcinogenicity; other; Oral; Feed; dose end: 18 month; group: systemic; systemic / in life observation / body weight / body weight + systemic / in life observation / body weight / body weight gain.
Data set [19] concerns dog. The note with it: Chronic toxicity; beagle; Oral; Feed; dose end: 371 day; group: systemic; systemic / clinical chemistry / alanine aminotransferase (alt/sgpt) / alanine aminotransferase (alt/sgpt) + systemic / clinical chemistry / ….
Data set [20] has as its system rat. As to conditions: Chronic toxicity, wistar, Oral, Feed, dose end: 24 month, group: systemic.
Data set [21] relates to dog. As to conditions: Chronic toxicity, beagle, Oral, Feed, dose end: 373 day, group: systemic.
Data set [22] concerns rat. The note with it: Carcinogenicity, other, Oral, Feed, dose end: 24 month, group: systemic.
The mark [23] stands for this setting: systemic / pathology microscopic / stomach / infiltration cellular + systemic / pathology gross / stomach / discolored + systemic / ….
The mark [24] stands for this setting: systemic / pathology microscopic / stomach / infiltration cellular + systemic / pathology gross / stomach / prominent limiting ridge + ….
[25] abbreviates: systemic / in life observation / clinical signs / erythema + systemic / in life observation / clinical signs / body surface staining + ….
Setting [26] is: systemic / in life observation / clinical signs / erythema + systemic / pathology microscopic / skin / hyperplasia + systemic / pathology ….
[27] abbreviates: systemic / clinical chemistry / alanine aminotransferase (alt/sgpt) / alanine aminotransferase (alt/sgpt) + systemic / clinical chemistry / ….
Where [28] appears, read: systemic / organ weight / ovary / absolute + systemic / organ weight / ovary / relative to body weight.
The mark [29] stands for this setting: systemic / pathology microscopic / liver / hypertrophy.
The mark [30] stands for this setting: systemic / clinical chemistry / cholesterol / cholesterol + systemic / organ weight / kidney / absolute + systemic / organ weight / kidney….
Where [31] appears, read: systemic / organ weight / liver / absolute + systemic / organ weight / liver / relative to body weight + systemic / pathology microscopic / ….
The mark [32] stands for this setting: group: offspring, systemic / in life observation / body weight / offspring (pup) weight.
Setting [33] is: group: parental, systemic / in life observation / body weight / body weight.
Setting [34] is: group: reproductive, reproductive / reproductive performance / pregnancy / pregnancy.
The mark [35] stands for this setting: systemic / in life observation / body weight / body weight gain + systemic / in life observation / food consumption / food consumption.
Setting [36] is: group: developmental, developmental / developmental malformation / bone / unossified + developmental / developmental malformation / ureter / hydroureter + ….
The mark [37] stands for this setting: group: maternal, systemic / in life observation / food consumption / food consumption + reproductive / reproductive performance / resorptions / resorptions….
Where [38] appears, read: group: offspring, systemic / in life observation / body weight / offspring (pup) weight + systemic / in life observation / body weight / offspring (pup) ….
Setting [39] is: group: parental, systemic / in life observation / body weight / body weight + systemic / in life observation / body weight / body weight gain + systemic / in….
The mark [40] stands for this setting: systemic / pathology gross / prostate / reduced size.
The mark [41] stands for this setting: systemic / pathology microscopic / heart / vacuolization + systemic / pathology microscopic / liver / hypertrophy.
[42] abbreviates: systemic / pathology microscopic / heart / vacuolization + systemic / pathology microscopic / liver / hypertrophy + systemic / clinical ….
The mark [43] stands for this setting: systemic / clinical chemistry / albumin / albumin + systemic / clinical chemistry / creatinine / creatinine + systemic / clinical chemistry….
The mark [44] stands for this setting: systemic / clinical chemistry / creatinine / creatinine.
Setting [45] is: systemic / pathology microscopic / liver / adenoma/carcinoma combined + systemic / pathology microscopic / liver / carcinoma + systemic / in….
[46] abbreviates: systemic / pathology gross / urinary bladder / foci.
Where [47] appears, read: systemic / pathology microscopic / liver / polymorphism.

For `OCCN1CN(CCO)CN(CCO)C1` [1,3,5-Triazine-1,3,5(2H,4H,6H)-triethanol], the NEL in data set [1] (setting [23]) was 50 mg/kg/day; in data set [2] (setting [25]), below 5 mg/kg/day. Further, the no observed adverse effect level (NOAEL) is 50 mg/kg/day in data set [1] (setting [23]) and 5 mg/kg/day in data set [2] (setting [26]). In addition, the LEL in data set [1] (setting [24]) came to 100 mg/kg/day; in data set [2] (setting [25]), 5 mg/kg/day. Also, the lowest observed adverse effect level (LOAEL) in data set [1] (setting [24]) stood at 100 mg/kg/day; in data set [2] (setting [26]) it was 50 mg/kg/day.

As to `COC(=O)c1ccccc1CS(=O)(=O)NC(=O)Nc1nc(OC)cc(OC)n1` [Bensulfuron-methyl], the LEL in data set [3] was determined as 455 mg/kg/day; in data set [4] (setting [28]), 3.5 mg/kg/day; in [5] (setting [29]), 38.9 mg/kg/day; in data set [6] (systemic / organ weight / spleen / absolute + systemic / organ weight / spleen / relative to body weight), 19.9 mg/kg/day; in data set [7] (setting [31]), 7.5 mg/kg/day. Further, the LOAEL in data set [3] was 455 mg/kg/day; in [4] (setting [27]) it was 340 mg/kg/day; in data set [5] (setting [29]) it was 387 mg/kg/day; in data set [6] (setting [27]), 223 mg/kg/day; in data set [7] (setting [30]), 474 mg/kg/day. Besides, the NEL in [3] is 226 mg/kg/day; in [4] (setting [28]), below 3.5 mg/kg/day; in data set [5] (setting [29]) it was below 38.9 mg/kg/day; in data set [6] (setting [27]) it was 1.4 mg/kg/day; in data set [7] (setting [31]), below 7.5 mg/kg/day. The NOAEL came to 226 mg/kg/day in data set [3]; 32.1 mg/kg/day in data set [4] (setting [27]); 132 mg/kg/day in data set [5] (systemic / pathology microscopic / liver / hypertrophy + systemic / organ weight / liver / absolute + systemic / organ weight / liver / …); 19.9 mg/kg/day in [6] (setting [27]); 93 mg/kg/day in data set [7] (setting [30]).

Consider `CBr` [Methyl bromide], for which the LEL is 30 ppm in data set [8] (setting [32]); 90 ppm in data set [8] (group: parental, systemic / in life observation / body weight / body weight + systemic / organ weight / liver / relative to body weight + systemic / organ …); 30 ppm in [8] (setting [34]); 0.825 mg/kg/day in data set [9] (systemic / in life observation / food consumption / food consumption); 70 ppm in data set [10]; 11.1 mg/kg/day in data set [11]. For the same compound, the lowest-observed-adverse-effect level (LOAEL) came to 30 ppm in data set [8] (setting [32]); 90 ppm in data set [8] (setting [33]); 30 ppm in data set [8] (setting [34]); 7.59 mg/kg/day in data set [9] (systemic / in life observation / body weight / body weight gain); 70 ppm in data set [10]; 11.1 mg/kg/day in data set [11]. The NEL amounted to 3 ppm in [8] (setting [32]); 30 ppm in data set [8] (group: parental, systemic / organ weight / liver / relative to body weight); 3 ppm in [8] (setting [34]); 0.082 mg/kg/day in [9] (setting [35]); 20 ppm in data set [10]; 2.2 mg/kg/day in data set [11]. Moreover, the no observed adverse effect level (NOAEL) in data set [8] (setting [32]) came out at 3 ppm; in data set [8] (setting [33]), 30 ppm; in data set [8] (setting [34]) it was 3 ppm; in data set [9] (setting [35]), 0.825 mg/kg/day; in [10] it was 20 ppm; in data set [11], 2.2 mg/kg/day.

As to `[Na+].[O-][Cl+2]([O-])[O-]` [Sodium chlorate], in data set [12], the LEL was determined as 1000 mg/kg/day, the lowest-observed-adverse-effect level (LOAEL) stood at 1000 mg/kg/day, the NEL is 100 mg/kg/day and the NOAEL was 100 mg/kg/day.

As for `CC/C(=N\OC/C=C/Cl)C1=C(O)CC(C2CCOCC2)CC1=O` (centres undefined) [Tepraloxydim], the LEL is 120 mg/kg/day in [13] (setting [36]); 360 mg/kg/day in data set [13] (setting [37]); 267 mg/kg/day in data set [14] (setting [38]); 253 mg/kg/day in [14] (setting [39]); 12.9 mg/kg/day in data set [15] (setting [40]); 310 mg/kg/day in data set [16] (setting [41]). Moreover, the LEL in data set [17] (setting [44]) was found to be 22 mg/kg/day; in data set [18], 52 mg/kg/day; in data set [19] it was 248 mg/kg/day; in data set [20] (systemic / pathology microscopic / liver / carcinoma) it was 29 mg/kg/day; in data set [21] (setting [46]), 3 mg/kg/day; in data set [22] (systemic / pathology microscopic / liver / eosinophilic focus + systemic / pathology microscopic / liver / infiltration cellular), 30 mg/kg/day. The LOAEL in [13] (setting [36]) is 120 mg/kg/day; in data set [13] (group: maternal, systemic / in life observation / food consumption / food consumption), 360 mg/kg/day; in data set [14] (setting [38]), 267 mg/kg/day; in data set [14] (setting [39]), 253 mg/kg/day; in data set [15] (systemic / organ weight / liver / absolute + systemic / organ weight / liver / relative to body weight), 63.3 mg/kg/day; in data set [16] (setting [41]) it was 310 mg/kg/day. The LOAEL in data set [17] (setting [43]) is 223 mg/kg/day; in [18], 52 mg/kg/day; in data set [19] it was 248 mg/kg/day; in data set [20] (setting [45]), 154 mg/kg/day; in [21] (systemic / clinical chemistry / cholesterol / cholesterol + systemic / clinical chemistry / creatinine / creatinine + systemic / clinical …) it was 56 mg/kg/day; in [22] (setting [47]) it was 6 mg/kg/day. Also, the NEL was 40 mg/kg/day in data set [13] (setting [36]); 120 mg/kg/day in [13] (setting [37]); 50.3 mg/kg/day in data set [14] (setting [38]); 50.9 mg/kg/day in data set [14] (setting [39]); below 12.9 mg/kg/day in data set [15] (setting [40]); 82 mg/kg/day in [16] (setting [42]). In addition, the NEL in data set [17] (setting [44]) is below 22 mg/kg/day; in data set [18] it was below 52 mg/kg/day; in data set [19] it was below 248 mg/kg/day; in data set [20] (setting [45]), 5 mg/kg/day; in [21] (setting [46]), below 3 mg/kg/day; in [22] (systemic / pathology microscopic / liver / eosinophilic focus + systemic / pathology microscopic / liver / infiltration cellular + systemic…) it was 5 mg/kg/day. Moreover, the no-observed-adverse-effect level (NOAEL) in [13] (setting [36]) was found to be 40 mg/kg/day; in [13] (setting [37]) it was 120 mg/kg/day; in data set [14] (setting [38]), 50.3 mg/kg/day; in data set [14] (setting [39]), 50.9 mg/kg/day; in [15] (systemic / organ weight / liver / absolute + systemic / organ weight / liver / relative to body weight + systemic / clinical chemistry / …) it was 12.9 mg/kg/day; in [16] (setting [42]), 82 mg/kg/day. Moreover, the no-observed-adverse-effect level (NOAEL) is 22 mg/kg/day in data set [17] (setting [43]); below 52 mg/kg/day in data set [18]; below 248 mg/kg/day in data set [19]; 29 mg/kg/day in data set [20] (setting [45]); 11.5 mg/kg/day in data set [21] (systemic / pathology gross / urinary bladder / foci + systemic / clinical chemistry / cholesterol / cholesterol + systemic / clinical …); below 6 mg/kg/day in data set [22] (setting [47]).
